Assay results as given in article PMC7915588, “Polyphyllin D Shows Anticancer Effect through a Selective Inhibition of Src Homology Region 2-Containing Protein Tyrosine Phosphatase-2 (SHP2)” (Molecules, 2021).

Key:
PTPN12 (PTP-PEST) = target: T1, PTPN12 (PTP-PEST) (Homo sapiens, UniProt Q05209); experiment: biochemical; design: Fluorogenic phosphatase assay, DiFMUP hydrolysis by recombinant PTPs, initial velocity, Ex/Em 355/460 nm; details: read-out: Inhibition by 20 µM polyphyllin D (%)
T1 construct: 1-334
T1 sequence (Q05209 1-780): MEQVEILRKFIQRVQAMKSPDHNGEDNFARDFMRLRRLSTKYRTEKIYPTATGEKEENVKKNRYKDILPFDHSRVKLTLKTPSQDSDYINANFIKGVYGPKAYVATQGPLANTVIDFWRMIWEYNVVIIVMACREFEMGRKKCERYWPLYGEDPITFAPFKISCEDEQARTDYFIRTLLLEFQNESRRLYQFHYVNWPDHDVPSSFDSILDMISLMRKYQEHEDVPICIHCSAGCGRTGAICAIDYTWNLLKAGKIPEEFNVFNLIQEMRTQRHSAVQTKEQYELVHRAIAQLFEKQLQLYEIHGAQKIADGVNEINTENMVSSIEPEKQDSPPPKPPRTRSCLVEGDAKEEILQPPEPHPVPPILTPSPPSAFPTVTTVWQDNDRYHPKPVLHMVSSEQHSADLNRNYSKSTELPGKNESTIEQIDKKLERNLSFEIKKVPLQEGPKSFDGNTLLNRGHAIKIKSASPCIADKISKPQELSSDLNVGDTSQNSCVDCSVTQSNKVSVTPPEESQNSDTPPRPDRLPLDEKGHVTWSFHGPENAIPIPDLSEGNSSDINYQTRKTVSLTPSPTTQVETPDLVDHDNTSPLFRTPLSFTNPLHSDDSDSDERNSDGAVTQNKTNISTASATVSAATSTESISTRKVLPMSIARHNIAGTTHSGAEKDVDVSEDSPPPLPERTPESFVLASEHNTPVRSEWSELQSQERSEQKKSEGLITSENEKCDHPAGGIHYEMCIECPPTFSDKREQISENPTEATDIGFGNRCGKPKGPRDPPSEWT

PTPN9 (PTP-MEG2) = target: T2, PTPN9 (PTP-MEG2) (Homo sapiens, UniProt P43378); experiment: biochemical; design: Fluorogenic phosphatase assay, DiFMUP hydrolysis by recombinant PTPs, initial velocity, Ex/Em 355/460 nm; details: read-out: Inhibition by 20 µM polyphyllin D (%)
T2 construct: 277-582
T2 sequence (P43378 1-593): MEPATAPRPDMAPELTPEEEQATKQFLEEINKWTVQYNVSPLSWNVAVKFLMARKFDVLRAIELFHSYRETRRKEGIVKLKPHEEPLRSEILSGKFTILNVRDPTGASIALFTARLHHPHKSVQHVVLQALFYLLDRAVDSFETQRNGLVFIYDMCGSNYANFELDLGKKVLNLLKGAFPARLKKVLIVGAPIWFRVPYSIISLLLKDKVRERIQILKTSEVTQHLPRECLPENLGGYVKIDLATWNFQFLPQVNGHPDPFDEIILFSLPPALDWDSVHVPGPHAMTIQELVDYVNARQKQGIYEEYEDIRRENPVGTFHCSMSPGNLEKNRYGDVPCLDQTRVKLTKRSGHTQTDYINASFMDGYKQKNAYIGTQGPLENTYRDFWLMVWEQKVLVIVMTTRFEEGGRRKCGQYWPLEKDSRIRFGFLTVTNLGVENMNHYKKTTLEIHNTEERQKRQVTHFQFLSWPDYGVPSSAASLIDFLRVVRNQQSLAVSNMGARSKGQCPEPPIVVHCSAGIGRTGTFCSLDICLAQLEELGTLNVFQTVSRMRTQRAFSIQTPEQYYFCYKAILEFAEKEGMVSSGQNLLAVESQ

Which inhibition at 20 µM (PTPN12 (PTP-PEST)) does the source give for C[C@@H]1CC[C@@]2(OC1)O[C@H]1C[C@H]3[C@@H]4CC=C5C[C@@H](O[C@@H]6O[C@H](CO)[C@@H](O[C@@H]7O[C@@H](CO)[C@H](O)[C@H]7O)[C@H](O)[C@H]6O[C@@H]6O[C@@H](C)[C@H](O)[C@@H](O)[C@H]6O)CC[C@]5(C)[C@H]4CC[C@]3(C)[C@H]1[C@@H]2C [polyphyllin D] here?
The inhibition at 20 µM was 29.9%.

And the inhibition at 20 µM (PTPN9 (PTP-MEG2))?
Its inhibition at 20 µM is 0%.
